Patent publication US11981640B1, “4,5-bis(4-chlorophenyl)-1-hexyl-2-(3-hydroxy-4-methoxyphenyl)-1H-imidazole as an antimicrobial compound” (KING FAISAL UNIVERSITY, priority 2023, dated 2024)

Tests used:
Format in all cases: cell-based
Details in all cases: after 10, 20, 40 and 60 minutes at all dilutions 1:100, 1:200, 1:400, 1:800
Escherichia coli = assay: Antimicrobial testing by agar dilution, Escherichia coli
Method: (§1) The antimicrobial properties of the 4,5-bis(4-chlorophenyl)-1-hexyl-2-(3-hydroxy-4-methoxyphenyl)-1H-imidazole (5) were studied by the method of agar dilution. Test solutions of each compound were prepared in concentration of 1% using dimethylformamide as a solvent then they are diluted in physiological solution to obtain the final experimental dilutions 1:100, 1:200, 1:400, 1:800. The effect of these substances were compared with furacillin in a controllable study. The testing microbes used were gram positive bacteria Staphylococcus aureus, gram negative bacteria Escherichia coli, Pseudomonas aeruginosa and Candida albicans fungi were taken. The experiments used for this survey were meat-pentonlu agar (EPA) for cultivation of bacteria and Saburo environment for fungi. Each experiment used 1 ml of test solution on each plate 500 min. Add 2 drops of emulsified with microbes feel. All experimental samples were taken from the agar after 10, 20, 40, 60 minutes in the environment on the basis of Patrk planted. Bacteria were cultivated at a temperature of 37° C. for 1 day and the mushroom was kept in a thermostat for 2 hours at a temperature of 28° C. in the. Then results were checked.

Pseudomonas aeruginosa = assay: Antimicrobial testing by agar dilution, Pseudomonas aeruginosa
Method: as §1

Candida albicans = assay: Antimicrobial testing by agar dilution, Candida albicans
Method: as §1

Staphylococcus aureus = assay: Antimicrobial testing by agar dilution, Staphylococcus aureus
Method: as §1

CCCCCCn1c(-c2ccc(OC)c(O)c2)nc(-c2ccc(Cl)cc2)c1-c1ccc(Cl)cc1 [4,5-bis(4-chlorophenyl)-1-hexyl-2-(3-hydroxy-4-methoxyphenyl)-1H-imidazole]
highest inhibition activity: inhibition activity, Escherichia coli (Escherichia coli) | inhibition activity, Pseudomonas aeruginosa (Pseudomonas aeruginosa) | inhibition activity, Candida albicans (Candida albicans) | inhibition activity, Staphylococcus aureus (Staphylococcus aureus)
